The values that follow come from patent US20090239861A1, “QUINAZOLINE DERIVATIVES AS ANTICANCER AGENTS” (priority 2005, published 2009).

SMILES strings stand for the structures.

One test has as its target T1, erbB2 tyrosine kinase (Homo sapiens, UniProt P04626).
T1 construct: Recombinant intracellular fragments of EGFR, erbB2 and erbB4; made in house; host or cells: baculovirus/Sf21 insect cells
Briefly: Protein tyrosine kinase phosphorylation assay, Test (a), erbB2. The format is biochemical. The conditions noted are these: ATP at Km concentration; read-out: IC50 Test (a): Inhibition of erbB2 tyrosine kinase protein phosphorylation. How it is done:
(§1) a) Protein Tyrosine Kinase phosphorylation Assays
(§2) This test measures the ability of a test compound to inhibit the phosphorylation of a tyrosine containing polypeptide substrate by EGFR, erbB2 and erbB4 tyrosine kinase enzyme.
(§3) Recombinant intracellular fragments of EGFR, erbB2 and erbB4 (accession numbers X00588, X03363 and L07868 respectively) were cloned and expressed in the baculovirus/Sf21 system. […]
(§4) Constitutive kinase activity of these recombinant proteins was determined by their ability to phosphorylate a synthetic peptide (made up of a random co-polymer of Glutamic Acid, Alanine and Tyrosine in the ratio of 6:3:1). […]
(§5) The immobilised phospho-peptide product of the reaction was detected by immunological methods. […] After further washing, HRP activity in each well of the plate was measured colorimetrically using 22′-Azino-di-[3-ethylbenzthiazoline sulfonate (6)]diammonium salt crystals (ABTS™ from Roche) as a substrate.
(§6) Quantification of colour development and thus enzyme activity was achieved by the measurement of absorbance at 405 nm on a Molecular Devices ThermoMax microplate reader. Kinase inhibition for a given compound was expressed as an IC50 value. […] The range of phosphorylation was calculated from the positive (vehicle plus ATP) and negative (vehicle minus ATP) control values.

The target of the next test is T2, EGFR tyrosine kinase (Homo sapiens, UniProt P00533).
T2 construct: Recombinant intracellular fragments of EGFR, erbB2 and erbB4; made in house; host or cells: baculovirus/Sf21 insect cells
T2 sequence (P00533 669-1210 limits assumed): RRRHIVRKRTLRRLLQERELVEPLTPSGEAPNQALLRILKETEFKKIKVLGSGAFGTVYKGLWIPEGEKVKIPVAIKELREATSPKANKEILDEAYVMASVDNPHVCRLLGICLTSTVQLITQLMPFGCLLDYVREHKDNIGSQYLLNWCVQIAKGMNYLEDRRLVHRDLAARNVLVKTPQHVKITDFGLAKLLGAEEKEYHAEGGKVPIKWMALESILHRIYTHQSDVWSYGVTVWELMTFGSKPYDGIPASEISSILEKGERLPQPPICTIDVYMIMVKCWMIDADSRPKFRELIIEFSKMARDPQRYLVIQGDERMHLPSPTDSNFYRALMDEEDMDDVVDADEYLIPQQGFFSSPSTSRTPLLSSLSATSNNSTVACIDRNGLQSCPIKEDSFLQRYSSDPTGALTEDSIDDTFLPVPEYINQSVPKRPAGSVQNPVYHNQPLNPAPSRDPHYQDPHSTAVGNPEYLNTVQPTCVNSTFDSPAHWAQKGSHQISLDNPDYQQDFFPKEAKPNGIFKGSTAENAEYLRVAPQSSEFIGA
The test is described as follows: Protein tyrosine kinase phosphorylation assay, Test (a), EGFR. It counts as biochemical. The conditions noted are these: ATP at Km concentration; read-out: IC50 Test (a): Inhibition of EGFR tyrosine kinase protein phosphorylation. Here is the method: as §1, §2, §3, §4, §5, §6

T1 sequence (P04626 676-1255 limits assumed): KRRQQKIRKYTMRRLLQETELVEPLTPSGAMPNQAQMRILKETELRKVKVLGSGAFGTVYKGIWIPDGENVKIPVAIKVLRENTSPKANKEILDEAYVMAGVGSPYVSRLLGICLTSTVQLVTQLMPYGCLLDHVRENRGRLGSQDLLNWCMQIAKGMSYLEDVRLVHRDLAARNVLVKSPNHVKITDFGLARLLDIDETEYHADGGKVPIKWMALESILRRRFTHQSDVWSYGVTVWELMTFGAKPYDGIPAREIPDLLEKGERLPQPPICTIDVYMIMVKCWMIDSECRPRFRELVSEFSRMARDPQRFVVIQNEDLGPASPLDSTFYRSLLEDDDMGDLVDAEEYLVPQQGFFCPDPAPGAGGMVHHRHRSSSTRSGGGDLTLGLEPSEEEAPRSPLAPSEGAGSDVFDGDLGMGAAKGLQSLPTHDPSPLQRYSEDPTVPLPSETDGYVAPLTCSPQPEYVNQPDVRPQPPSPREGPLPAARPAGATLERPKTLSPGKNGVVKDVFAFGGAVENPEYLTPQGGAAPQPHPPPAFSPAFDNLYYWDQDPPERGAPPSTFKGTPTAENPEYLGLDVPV

As for `C[C@@H](Oc1cccc2ncnc(Nc3ccc4c(ccn4Cc4ccccn4)c3)c12)C(=O)N(C)CCO` [Example 1, (2R)—N-(2-Hydroxyethyl)-N-methyl-2-[(4-{[1-(pyridin-2-ylmethyl)-1H-indol-5-yl]amino}quinazolin-5-yl)oxy]propanamide], the results for the IC50 at erbB2 tyrosine kinase and on EGFR tyrosine kinase were 0.011 µM and 0.37 µM, respectively.

For the compound `C[C@@H](Oc1cccc2ncnc(Nc3ccc4c(ccn4Cc4ccccn4)c3)c12)C(=O)N(C)C` [Example 2, (2R)—N,N-Dimethyl-2-[(4-{[1-(pyridin-2-ylmethyl)-1H-indol-5-yl]amino}quinazolin-5-yl)oxy]propanamide], the 50% inhibitory concentration (IC50) on erbB2 tyrosine kinase came to 0.015 µM; at EGFR tyrosine kinase, 0.17 µM.

Broadly, the IC50 is the concentration at which inhibition is half-maximal.
